Values of other authors, collected in patent publication US20200338051A1, “NON-CLINICAL LIQUID FORMULATIONS OF PAN-JAK INHIBITOR” (Janssen Pharmaceutica NV, priority 2019, published 2020).
Where two headings read alike, the source gives them in different places.

Key:
TYK2 = TYK2 (Homo sapiens, UniProt P29597); conditions: in vitro
phosphorylation of STAT4 = conditions: PBMC, INF-α stimulus
JAK3 = biological target: T1, JAK3 (Homo sapiens, UniProt P52333); conditions: in vitro
T1 sequence (P52333 1-1124): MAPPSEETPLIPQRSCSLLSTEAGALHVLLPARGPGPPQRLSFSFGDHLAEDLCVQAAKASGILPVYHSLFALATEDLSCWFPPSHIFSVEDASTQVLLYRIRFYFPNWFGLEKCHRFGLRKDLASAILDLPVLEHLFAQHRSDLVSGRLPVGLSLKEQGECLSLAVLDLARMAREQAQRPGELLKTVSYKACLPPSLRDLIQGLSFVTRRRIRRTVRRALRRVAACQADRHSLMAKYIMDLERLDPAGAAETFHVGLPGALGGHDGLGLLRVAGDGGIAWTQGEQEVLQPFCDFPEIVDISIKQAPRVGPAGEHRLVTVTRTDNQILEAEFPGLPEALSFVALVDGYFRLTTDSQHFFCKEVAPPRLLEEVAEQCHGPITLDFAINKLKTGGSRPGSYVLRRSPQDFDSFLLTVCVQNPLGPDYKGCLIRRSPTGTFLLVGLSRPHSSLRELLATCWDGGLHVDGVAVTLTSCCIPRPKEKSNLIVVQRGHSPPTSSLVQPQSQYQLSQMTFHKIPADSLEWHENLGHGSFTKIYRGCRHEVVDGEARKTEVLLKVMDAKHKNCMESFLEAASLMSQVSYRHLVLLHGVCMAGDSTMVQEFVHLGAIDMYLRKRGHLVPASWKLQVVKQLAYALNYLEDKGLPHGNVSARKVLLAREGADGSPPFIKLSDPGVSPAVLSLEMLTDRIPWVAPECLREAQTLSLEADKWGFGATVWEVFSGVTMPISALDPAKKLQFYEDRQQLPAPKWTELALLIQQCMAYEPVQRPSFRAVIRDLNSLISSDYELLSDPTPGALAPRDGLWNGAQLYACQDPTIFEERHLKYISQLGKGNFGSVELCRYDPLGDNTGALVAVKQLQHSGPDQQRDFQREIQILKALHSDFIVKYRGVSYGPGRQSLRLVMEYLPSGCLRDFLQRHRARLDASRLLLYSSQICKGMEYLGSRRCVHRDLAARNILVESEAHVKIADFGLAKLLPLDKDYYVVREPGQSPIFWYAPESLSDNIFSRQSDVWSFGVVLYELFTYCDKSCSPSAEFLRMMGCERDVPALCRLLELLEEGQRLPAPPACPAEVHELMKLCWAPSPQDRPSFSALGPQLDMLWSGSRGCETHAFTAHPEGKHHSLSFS

JAK2 = JAK2 (Homo sapiens, UniProt O60674); conditions: in vitro
JAK2, sequence (O60674 whole entry, species assumed): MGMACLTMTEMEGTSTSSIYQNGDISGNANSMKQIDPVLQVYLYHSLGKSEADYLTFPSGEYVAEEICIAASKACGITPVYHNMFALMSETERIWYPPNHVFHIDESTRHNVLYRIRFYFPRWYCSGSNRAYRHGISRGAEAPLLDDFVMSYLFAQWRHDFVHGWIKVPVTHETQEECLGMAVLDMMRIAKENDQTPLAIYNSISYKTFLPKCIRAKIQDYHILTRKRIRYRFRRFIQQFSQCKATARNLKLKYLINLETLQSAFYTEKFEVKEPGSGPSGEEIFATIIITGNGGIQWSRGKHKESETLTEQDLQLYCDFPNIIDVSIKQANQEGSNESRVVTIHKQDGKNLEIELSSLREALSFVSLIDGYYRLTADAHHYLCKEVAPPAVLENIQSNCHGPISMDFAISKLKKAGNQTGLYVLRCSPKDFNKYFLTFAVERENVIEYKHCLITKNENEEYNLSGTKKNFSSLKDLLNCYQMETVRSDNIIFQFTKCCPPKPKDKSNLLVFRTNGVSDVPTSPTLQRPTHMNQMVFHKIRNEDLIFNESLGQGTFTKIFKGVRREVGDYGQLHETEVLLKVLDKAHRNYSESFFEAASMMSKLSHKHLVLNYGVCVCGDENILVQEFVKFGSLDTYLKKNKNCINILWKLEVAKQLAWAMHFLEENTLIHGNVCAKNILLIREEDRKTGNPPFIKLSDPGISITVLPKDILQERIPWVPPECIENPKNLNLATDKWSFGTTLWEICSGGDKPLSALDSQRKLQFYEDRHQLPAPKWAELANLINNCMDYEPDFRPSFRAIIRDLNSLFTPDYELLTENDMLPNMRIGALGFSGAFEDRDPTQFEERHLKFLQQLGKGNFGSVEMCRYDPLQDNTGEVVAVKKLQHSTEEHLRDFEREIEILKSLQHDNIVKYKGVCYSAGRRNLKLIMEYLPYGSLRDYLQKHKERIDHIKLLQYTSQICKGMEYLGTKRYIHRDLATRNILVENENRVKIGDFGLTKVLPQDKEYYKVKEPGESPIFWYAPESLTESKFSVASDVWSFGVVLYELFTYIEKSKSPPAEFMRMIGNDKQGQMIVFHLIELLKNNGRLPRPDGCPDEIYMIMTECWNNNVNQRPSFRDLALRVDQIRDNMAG

JAK1 = JAK1 (Homo sapiens, UniProt P23458); conditions: in vitro
JAK1, sequence (P23458 whole entry, species assumed): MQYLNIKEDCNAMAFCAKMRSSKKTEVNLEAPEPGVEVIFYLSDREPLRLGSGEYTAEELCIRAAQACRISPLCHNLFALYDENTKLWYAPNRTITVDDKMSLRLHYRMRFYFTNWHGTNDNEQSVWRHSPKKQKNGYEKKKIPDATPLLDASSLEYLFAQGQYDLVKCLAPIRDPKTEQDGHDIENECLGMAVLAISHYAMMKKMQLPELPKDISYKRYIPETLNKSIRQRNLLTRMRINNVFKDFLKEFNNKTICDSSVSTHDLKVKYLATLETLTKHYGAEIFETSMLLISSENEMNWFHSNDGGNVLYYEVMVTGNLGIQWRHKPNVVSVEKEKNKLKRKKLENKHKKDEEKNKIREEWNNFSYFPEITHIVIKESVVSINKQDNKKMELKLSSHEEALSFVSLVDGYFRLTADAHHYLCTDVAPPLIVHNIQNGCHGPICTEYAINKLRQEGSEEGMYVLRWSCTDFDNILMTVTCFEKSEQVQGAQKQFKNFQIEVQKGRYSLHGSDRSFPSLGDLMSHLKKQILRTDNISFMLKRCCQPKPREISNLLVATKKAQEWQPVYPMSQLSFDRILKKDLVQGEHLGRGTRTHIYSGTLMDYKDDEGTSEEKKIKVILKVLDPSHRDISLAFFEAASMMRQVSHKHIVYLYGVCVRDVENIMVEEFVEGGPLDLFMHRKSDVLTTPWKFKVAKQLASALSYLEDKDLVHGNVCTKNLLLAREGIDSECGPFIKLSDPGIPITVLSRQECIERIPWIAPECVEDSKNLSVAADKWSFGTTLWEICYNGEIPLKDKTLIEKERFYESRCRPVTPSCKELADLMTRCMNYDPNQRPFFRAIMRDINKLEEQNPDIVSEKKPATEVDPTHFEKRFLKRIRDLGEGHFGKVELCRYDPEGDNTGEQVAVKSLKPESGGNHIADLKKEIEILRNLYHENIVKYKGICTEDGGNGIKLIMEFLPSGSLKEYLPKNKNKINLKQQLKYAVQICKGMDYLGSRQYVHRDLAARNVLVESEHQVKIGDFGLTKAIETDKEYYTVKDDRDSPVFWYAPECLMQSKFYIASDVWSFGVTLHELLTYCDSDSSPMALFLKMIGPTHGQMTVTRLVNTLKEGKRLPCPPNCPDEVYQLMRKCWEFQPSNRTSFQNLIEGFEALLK

phosphorylation of STAT5 [1] = conditions: PBMC, GM-CSF stimulus
phosphorylation of STAT5 [2] = conditions: PBMC, IL-2 stimulus

TYK2, sequence (P29597 whole entry, species assumed): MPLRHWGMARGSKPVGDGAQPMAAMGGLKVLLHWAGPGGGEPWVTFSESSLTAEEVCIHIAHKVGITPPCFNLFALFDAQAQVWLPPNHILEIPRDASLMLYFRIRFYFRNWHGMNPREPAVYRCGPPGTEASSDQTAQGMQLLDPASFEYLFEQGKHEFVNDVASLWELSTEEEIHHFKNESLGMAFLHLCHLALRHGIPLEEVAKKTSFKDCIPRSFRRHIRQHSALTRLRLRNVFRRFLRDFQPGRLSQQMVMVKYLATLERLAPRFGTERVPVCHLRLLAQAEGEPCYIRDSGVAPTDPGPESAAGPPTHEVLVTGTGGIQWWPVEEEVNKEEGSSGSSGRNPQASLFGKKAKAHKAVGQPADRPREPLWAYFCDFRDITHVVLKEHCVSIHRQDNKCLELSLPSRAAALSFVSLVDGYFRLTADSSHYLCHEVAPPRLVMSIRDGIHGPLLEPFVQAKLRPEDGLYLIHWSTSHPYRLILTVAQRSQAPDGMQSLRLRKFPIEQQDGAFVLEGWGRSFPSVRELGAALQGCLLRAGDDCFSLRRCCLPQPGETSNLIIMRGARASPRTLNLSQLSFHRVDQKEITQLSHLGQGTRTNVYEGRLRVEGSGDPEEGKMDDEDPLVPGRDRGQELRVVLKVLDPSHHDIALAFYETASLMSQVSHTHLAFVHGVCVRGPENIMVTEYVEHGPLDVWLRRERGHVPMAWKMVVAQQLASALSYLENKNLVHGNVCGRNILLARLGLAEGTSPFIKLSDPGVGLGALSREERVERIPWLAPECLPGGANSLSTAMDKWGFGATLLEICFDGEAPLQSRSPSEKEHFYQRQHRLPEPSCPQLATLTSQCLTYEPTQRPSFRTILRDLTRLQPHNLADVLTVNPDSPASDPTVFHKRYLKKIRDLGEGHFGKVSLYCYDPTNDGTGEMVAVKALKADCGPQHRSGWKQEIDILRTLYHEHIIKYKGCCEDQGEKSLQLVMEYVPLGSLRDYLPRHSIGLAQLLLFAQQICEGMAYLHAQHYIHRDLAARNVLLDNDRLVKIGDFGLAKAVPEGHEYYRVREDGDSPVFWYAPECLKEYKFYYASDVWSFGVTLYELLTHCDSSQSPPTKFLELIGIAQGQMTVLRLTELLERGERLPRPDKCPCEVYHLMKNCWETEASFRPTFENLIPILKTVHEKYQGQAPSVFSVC

CC(C)(O)CNC(=O)Cc1nc2cnc3[nH]ccc3c2n1[C@H]1CC[C@H](CC#N)CC1 [drug substance, 2-(1-((1r,4r)-4-(cyanomethyl)cyclohexyl)-1,6-dihydroimidazo[4,5-d]pyrrolo[2,3-b]pyridin-2-yl)-N-(2-hydroxy-2-methylpropyl)acetamide]
Enzymatic activity at TYK2 (TYK2): potent enzymatic activity
Systemic exposure (in vivo): low systemic exposure
Concentrations in the colon versus plasma (intra-colonic dosing): much higher than those in the plasma
Concentrations in the colon versus plasma (oral dosing): much higher than those in the plasma
Inhibition of phosphorylation of STAT4 (phosphorylation of STAT4): showed cellular activity
Enzymatic activity at JAK3 (JAK3): potent enzymatic activity
Enzymatic activity at JAK2 (JAK2): potent enzymatic activity
Enzymatic activity at JAK1 (JAK1): potent enzymatic activity
Inhibition of phosphorylation of STAT5 (phosphorylation of STAT5 [1]): showed cellular activity
Inhibition of phosphorylation of STAT5 (phosphorylation of STAT5 [2]): showed cellular activity
